From BindingDB's records for patent US117730 (Glaxosmithkline Intellectual Property Development, 2023) come the findings set out here.

Molecules are shown by their SMILES. Some results are limits rather than exact numbers.

T1 sequence (P09958 108-574): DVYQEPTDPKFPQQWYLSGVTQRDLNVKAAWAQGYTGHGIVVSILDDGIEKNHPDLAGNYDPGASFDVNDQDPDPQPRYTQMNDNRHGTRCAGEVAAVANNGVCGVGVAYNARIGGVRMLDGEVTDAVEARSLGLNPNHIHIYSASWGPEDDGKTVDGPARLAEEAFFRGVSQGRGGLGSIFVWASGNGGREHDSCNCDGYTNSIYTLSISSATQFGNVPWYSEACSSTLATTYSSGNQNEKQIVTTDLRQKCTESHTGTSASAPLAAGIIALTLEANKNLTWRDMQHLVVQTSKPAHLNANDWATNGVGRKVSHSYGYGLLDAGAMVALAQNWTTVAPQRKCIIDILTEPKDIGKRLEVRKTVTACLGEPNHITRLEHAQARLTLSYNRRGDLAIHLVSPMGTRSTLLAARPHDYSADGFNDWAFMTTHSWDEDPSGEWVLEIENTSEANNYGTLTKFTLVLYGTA

This test concerns the target T1, Furin [108-574] (Homo sapiens, UniProt P09958).
T1 construct: 108-574
Briefly: Furin Enzyme Assay. The method, then:
Reactions were performed in black 384-well polystyrene low volume plates (Greiner). […] Compounds of the invention were dissolved in DMSO (1.0 mM) and serially diluted 1 to 3 with DMSO through eleven dilutions to provide a final compound concentration range from 0.00017 to 10 μM. 0.05 μL of each concentration was transferred to the corresponding well of an assay plate, and then 5 μL of 40 pM furin enzyme in assay buffer (100 mM HEPES pH7.5, 1 mM CaCl2 and 0.005% Triton X-100) was added using a Multidrop Combi (Thermo) to the compound plates, and mixed by inversion. […] The plates were centrifuged at 500×g for 1 minute and incubated at room temperature for two hours. Enzyme inhibition is then quantified using an Envision instrument (PerkinElmer).
The term IC50 denotes the concentration that inhibits the measured activity by half. Take `CNC(=O)NCC1CCN(Cc2cc(Oc3cnc(N4CCN(CCC(C)[S+](C)[O-])CC4)nc3)nc(-c3cc(Cl)cc(Cl)c3)c2)CC1` (configuration not stated) [US11773078, Example 17]: the IC50 came to 0.032 nM.
Regarding `COC(=O)NCC1CCN(Cc2cc(Oc3cnc(N4CC5CCC(C4)N5CCC(=O)O)nc3)nc(-c3cc(Cl)cc(Cl)c3)c2)CC1` [US11773078, Example 56], 0.032 nM corresponded to half-maximal inhibition (IC50).
In the case of `CNC(=O)OCC1CCN(Cc2cc(Oc3ccc(N4CCN(C)CC4)nc3)nc(-c3cc(Cl)cc(Cl)c3)c2)CC1` [US11773078, Example 67], the IC50 was 1.58 nM.
In turn, `CNC(=O)NCC1CCN(Cc2cc(Oc3cnc(N4CCN(C)CC4)nc3)nc(-c3cc(Cl)cc(Cl)c3)c2)CC1` [US11773078, Example 70] returned an IC50 of 0.032 nM.
Then `CC(=O)NCC1CCN(Cc2cc(Cc3cnc(N4CC5CCC(C4)N5C)nc3)nc(-c3cc(Cl)cc(Cl)c3)c2)CC1` [US11773078, Example 71], with 0.2 nM; and `CC(=O)NCC1CCN(Cc2cc(Oc3cnc(N4CCN(CCCO)CC4)nc3)cc(-c3cc(Cl)cc(Cl)c3)c2)CC1` [US11773078, Example 113], with under 0.158 nM; and `O=C(O)CCC1CCN(Cc2cc(Oc3cnc(N4CCN(CCO)CC4)nc3)cc(-c3cc(Cl)cc(Cl)c3)c2)CC1` [US11773078, Example 114], with under 0.158 nM.
Then `CC(C)(O)CCC1CCN(Cc2cc(Oc3ccc(N4CCNCC4)nc3)nc(-c3cc(Cl)cc(Cl)c3)c2)CC1` [US11773078, Example 120], with 2 nM; and `CN1CCC(c2ncc(Oc3cc(CN4CCC(CC(=O)O)CC4)cc(-c4cc(Cl)cc(Cl)c4)n3)cn2)CC(F)C1` (configuration not stated) [US11773078, Example 147], with 0.631 nM; and `CC(O)CCN1CCC(c2cnc(Cc3cc(CN4CCC(CC(N)=O)CC4)cc(-c4cc(Cl)cc(Cl)c4)n3)cn2)CC1` (configuration not stated) [US11773078, Example 164], with 3.98 nM.
Then `CC(=O)NCC1CCN(Cc2cc(Cc3ccc(N4CCN(CCC(=O)O)CC4)nn3)nc(-c3cc(Cl)cc(Cl)c3)c2)CC1` [US11773078, Example 169], with 0.032 nM; and `CC(=O)NCC1CCN(Cc2cc(Oc3cnc(N4CCN(C(=O)CCN)CC4)nc3)cc(-c3cc(Cl)cc(Cl)c3)c2)CC1` [US11773078, Example 170], with 0.794 nM; and `COC(=O)NC(=O)CCN1CCN(c2ncc(Cc3cc(CN4CCC(CNC(C)=O)CC4)cc(-c4cc(Cl)cc(Cl)c4)c3)cn2)CC1` [US11773078, Example 172], with 0.251 nM.
`CC(=O)NCC1CCN(Cc2cc(Oc3cnc(N4CCN(CCC5(C(=O)O)CC5)CC4)nc3)cc(-c3cc(Cl)cc(Cl)c3)c2)CC1` [US11773078, Example 173] returned an IC50 of 0.398 nM.
Then `CC(=O)NCC1CCN(Cc2cc(Oc3ccc(N4C[C@H](C)N(CCS(C)(=O)=O)C[C@@H]4C)nc3)nc(-c3cc(Cl)cc(Cl)c3)c2)CC1` [US11773078, Example 183], with 0.025 nM; and `CC(=O)NCC1CCN(Cc2cc(Oc3ccc(N4C[C@H](CN)[C@@H](O)C4)nc3)nc(-c3cc(Cl)cc(Cl)c3)c2)CC1` [US11773078, Example 184], with 0.251 nM.
Then `O=C(O)CC1CCN(Cc2cc(Oc3ccc(C4C[C@@H]5C[C@H]4CN5)nc3)nc(-c3cc(Cl)cc(Cl)c3)c2)CC1` (some centres not stated) [US11773078, Example 187], with 1.26 nM; and `CNC(=O)OCC1CCN(Cc2cc(Oc3cnc(N4CCN(C(C)CCC(=O)O)CC4)nc3)nc(-c3cc(Cl)cc(Cl)c3)c2)CC1` (configuration not stated) [US11773078, Example 208], with 0.013 nM.
In turn, `CC(=O)NCC1CCN(Cc2cc(Cc3cnc(N4CCN(C(C)CCC(=O)O)CC4)nc3)nc(-c3cc(Cl)cc(Cl)c3)c2)CC1` (configuration not stated) [US11773078, Example 215] yielded an IC50 of 0.398 nM.
The molecule `CNC(=O)NCC1CCN(Cc2cc(Cc3cnc(N4CCN(CCC(C)S(C)(=O)=O)CC4)nc3)nc(-c3cc(Cl)cc(Cl)c3)c2)CC1` (configuration not stated) [US11773078, Example 220] returned an IC50 of 0.063 nM.
For the molecule `CN1C2CC1CN(c1ncc(Oc3cc(CN4CCC(CC(=O)O)CC4)cc(-c4cc(Cl)cc(Cl)c4)n3)cn1)C2` [US11773078, Example 228], inhibition was half-maximal at 2.51 nM (IC50).
On to `CNC(=O)OCC1CCN(Cc2cc(Oc3cnc(N4CCN(CCC(=O)O)CC4)nc3)nc(-c3cc(Cl)cc(Cl)c3)c2)CC1` [US11773078, Example 248], for which half-maximal inhibition (IC50) required 0.032 nM.
The molecule `CC(=O)NCC1CCN(Cc2cc(Oc3ccc(N4CCN(CCCS(C)(=O)=O)CC4)nc3)nc(-c3cc(Cl)cc(Cl)c3)c2)CC1` [US11773078, Example 251] yielded an IC50 of under 0.158 nM.
For the molecule `CNC(=O)NCC1CCN(Cc2cc(Oc3ccc(N4CCN(CCCS(N)(=O)=O)CC4)nc3)nc(-c3cc(Cl)cc(Cl)c3)c2)CC1` [US11773078, Example 260], it took 0.2 nM to reach half-maximal inhibition (IC50).
Then `NS(=O)(=O)CCC1CCN(Cc2cc(Oc3ccc(N4CCN(CCC(=O)O)CC4)nc3)nc(-c3cc(Cl)cc(Cl)c3)c2)CC1` [US11773078, Example 277], with 0.032 nM.
Then `CC(=O)NCC1CCN(Cc2cc(Oc3cnc(C4CCN(C(C)CC(=O)O)CC4)nc3)nc(-c3cc(Cl)cc(Cl)c3)c2)CC1` (configuration not stated) [US11773078, Example 282], with 0.2 nM.
`CC(=O)NCC1CCN(Cc2cc(Oc3cnc(N4CCN(CCS(=O)(=O)O)CC4)nc3)nc(-c3cc(Cl)cc(Cl)c3)c2)CC1` [US11773078, Example 287]: the IC50 amounted to 2 nM.
Then `CNC(=O)NCC1CCN(Cc2cc(Oc3cnc(N4CCN(CCO)CC4)nc3)cc(-c3cc(Cl)cc(Cl)c3)c2)CC1` [US11773078, Example 313], with under 0.158 nM; and `CN1CCN(c2ncc(Oc3cc(CN4CC[C@@H]5[C@H](CC4)[C@H]5C(=O)O)cc(-c4cc(Cl)cc(Cl)c4)n3)cn2)CC1` [US11773078, Example 321], with 0.794 nM; and `CN1CCCN(c2ccc(Oc3cc(CN4CC[C@@H]5[C@H](CC4)[C@H]5C(=O)O)cc(-c4cc(Cl)cc(Cl)c4)n3)nn2)CC1` [US11773078, Example 362], with 0.032 nM.
`C[C@H](CC1CCN(Cc2cc(Oc3ccc(N4CCN(C)CC4)nn3)nc(-c3cc(Cl)cc(Cl)c3)c2)CC1)C(=O)O` [US11773078, Example 364] showed an IC50 of 0.2 nM.
`CN1C2CCC1CN(c1ncc(Cc3nc(-c4cc(Cl)cc(Cl)c4)cc(CN4CCC(CC(=O)O)CC4)c3F)cn1)C2` [US11773078, Example 378] registered an IC50 of 2 nM.
